Results reported in patent publication US9512128B2 (BAYER CROPSCIENCE AG, priority 2012, dated 2016).
Like-named read-outs stand apart in the source and are kept apart here.

Assay: log P by HPLC on reversed-phase columns (C 18), EEC directive 79/831 Annex V.A8
Assay type: physicochemical
Conditions: for logP[a]: method [a]; for logP[b]: method [b]
Description: The log P values were determined according to EEC directive 79/831 Annex V.A8 by HPLC (High Performance Liquid Chromatography) on reversed-phase columns (C 18), using the methods below:
[a] The LC-MS determination in the acidic range is carried out at pH 2.7 with 0.1% aqueous formic acid and acetonitrile (contains 0.1% formic acid) as mobile phases; linear gradient from 10% acetonitrile to 95% acetonitrile.
[b] The LC-MS determination in the neutral range is carried out at pH 7.8 using the mobile phases 0.001 molar aqueous ammonium bicarbonate solution and acetonitrile; linear gradient from 10% acetonitrile to 95% acetonitrile.

[1] = reversed-phase C18 HPLC column, pH 2.7, acidic range, pH 2.7, 0.1% aqueous formic acid / acetonitrile, read-out: log P[a]
[2] = reversed-phase C18 HPLC column, pH 7.8, neutral range, pH 7.8, 0.001 molar aqueous ammonium bicarbonate / acetonitrile, read-out: log P[b]
[3] = acidic range, pH 2.7, 0.1% aqueous formic acid / acetonitrile, read-out: log P[a]
[4] = neutral range, pH 7.8, 0.001 molar aqueous ammonium bicarbonate / acetonitrile, read-out: log P[b]

Q: For `Cc1cc(F)c(Br)cc1SCC(F)(F)F` [VIIa-1, 1-Bromo-2-fluoro-4-methyl-5-[(2,2,2-trifluoroethyl)sulphanyl]benzene], which chromatographic logP [1] is on record?
A: 4.3

Q: What about the chromatographic logP [2] of the same compound?
A: 4.34

Q: What does the source list for `O=C(Nc1cc(SSc2cc(NC(=O)C(F)(F)F)c(F)cc2Cl)c(Cl)cc1F)C(F)(F)F` [XI-2, N,N′-[Disulphanediylbis(4-chloro-6-fluorobenzene-3,1-diyl)]bis(2,2,2-trifluoroacetamide)]?
A: chromatographic logP [1]: 4.6; chromatographic logP [2]: 3.82

Q: Which chromatographic logP [1] does the source give for `CC(=O)Nc1cc(SC(C)=O)c(C)cc1F` [XVII-1, S-(5-Acetamido-4-fluoro-2-methylphenyl)ethanethioate] here?
A: 1.78

Q: For `FC(F)(F)CSc1cc(Br)ccc1C(F)(F)F` [VIIa-10, 4-Bromo-2-[(2,2,2-trifluoroethyl)sulphanyl]-1-(trifluoromethyl)benzene], which chromatographic logP [1] is on record?
A: 4.22

Q: And the chromatographic logP [2]?
A: 4.2

Q: Which “logP[a]” value does the source give for `O=c1c2sccc2ncn1-c1ccc(C(F)(F)F)c([S+]([O-])CC(F)(F)F)c1` (stereo not drawn) [Compound 107] here?
A: 2.44

Q: And the “logP[b]” value?
A: 2.40

Q: What does the source list for `Cc1c2c(=O)n(-c3ccc(C#N)c(SCC(F)(F)F)c3)cnc2nn1C` [Compound 50]?
A: logP[a]: 1.99; logP[b]: 1.92

Q: With `O=c1c2ccsc2ncn1-c1cc(SCC(F)(F)F)c(Cl)cc1Cl` [Compound 90] as the compound, how does the “logP[a]” value read?
A: 3.51

Q: And the “logP[b]” value?
A: 3.42

Q: With `O=c1c2sccc2ncn1-c1ccc(Cl)c(SCC(F)(F)F)c1` [Compound 103] as the compound, how does the “logP[a]” value read?
A: 2.90

Q: And the “logP[b]” value?
A: 2.84

Q: Which “logP[a]” value does the source give for `Cc1cc(F)c(-n2cnc3c(Cl)c(Cl)sc3c2=O)cc1SCC(F)(F)F` [Compound 111] here?
A: 4.38

Q: What about the “logP[b]” value of the same compound?
A: 4.24

Q: Which “logP[a]” value does the source give for `O=c1c2ccsc2ncn1-c1cc([S+]([O-])CC(F)(F)F)c(Cl)cc1Cl` (stereo not drawn) [Compound 98] here?
A: 2.53

Q: What about the “logP[b]” value of the same compound?
A: 2.53

Q: Which chromatographic logP [1] does the source give for `Cc1ccc(B2OC(C)(C)C(C)(C)O2)cc1SCC(F)(F)F` [4,4,5,5-Tetramethyl-2-{4-methyl-3-[(2,2,2-trifluoroethyl)sulphanyl]phenyl}-1,3,2-dioxaborolane] here?
A: 3.73

Q: And the chromatographic logP [2]?
A: 3.74

Q: For `Cc1c2c(=O)n(-c3ccc(Cl)c(SCC(F)(F)F)c3)cnc2nn1C` [Compound 48], which “logP[a]” value is on record?
A: 2.45

Q: And the “logP[b]” value?
A: 2.36

Q: Which chromatographic logP [1] does the source give for `Nc1ccc(Cl)c(SSc2cc(N)ccc2Cl)c1` [XVIII-3, 3,3′-Disulphanediylbis(4-chloroaniline)] here?
A: 3.31

Q: And the chromatographic logP [2]?
A: 3.35

Q: With `Cc1ccc(I)cc1SCC(F)(F)F` [VIIa-7-I, 4-Iodo-1-methyl-2-[(2,2,2-trifluoroethyl)sulphanyl]benzene] as the compound, how does the chromatographic logP [1] read?
A: 4.49

Q: And the chromatographic logP [2]?
A: 4.48

Q: Which results are given for `Cn1ncc2c(=O)n(-c3ccc(C(F)(F)F)c(SCC(F)(F)F)c3)cnc21` [Compound 25]?
A: logP[a]: 2.82; logP[b]: 2.75

Q: For `O=c1c2ncsc2ncn1-c1cc([S+]([O-])CC(F)(F)F)c(Cl)cc1Cl` (stereo not drawn) [Compound 67], which “logP[a]” value is on record?
A: 1.96

Q: And the “logP[b]” value?
A: 1.96

Q: Which results are given for `Cn1ncc2c(=O)n(-c3ccc(Cl)c(SCC(F)(F)F)c3)cnc21` [Compound 23]?
A: logP[a]: 2.58; logP[b]: 2.53

Q: Which “logP[a]” value does the source give for `Cc1cc(F)c(-n2cnc3ccsc3c2=O)cc1SCC(F)(F)F` [Compound 109] here?
A: 3.50

Q: And the “logP[b]” value?
A: 3.42

Q: Which “logP[a]” value does the source give for `Cc1cc(C)c(-n2c(C(F)(F)F)nc3c(cnn3C)c2=O)cc1SCC(F)(F)F` [Compound 11] here?
A: 3.83

Q: What about the “logP[b]” value of the same compound?
A: 3.77

Q: For `O=[N+]([O-])c1cc(SSc2ccc(Cl)c([N+](=O)[O-])c2)ccc1Cl` [XIX-4, 1,1′-Disulphanediylbis(4-chloro-3-nitrobenzene)], which chromatographic logP (pH 2.7, log P[a]) is on record?
A: 4.58

Q: And the chromatographic logP (pH 7.8, log P[b])?
A: 4.58

Q: With `Cn1cnc2c(=O)n(-c3cc(SCC(F)(F)F)c(Cl)cc3F)cnc21` [Compound 57] as the compound, how does the “logP[a]” value read?
A: 2.19

Q: And the “logP[b]” value?
A: 2.17

Q: Which results are given for `Cc1nn(C)c2ncn(-c3ccc(C(F)(F)F)c(SCC(F)(F)F)c3)c(=O)c12` [Compound 31]?
A: logP[a]: 3.06; logP[b]: 2.99

Q: For `Cc1ccc(-n2cnc3c(c(C)nn3C)c2=O)cc1SCC(F)(F)F` [Compound 30], which “logP[a]” value is on record?
A: 2.81

Q: And the “logP[b]” value?
A: 2.73

Q: Which “logP[a]” value does the source give for `Cc1cc(F)c(-n2c(C(F)(F)F)nc3scnc3c2=O)cc1SCC(F)(F)F` [Compound 65] here?
A: 3.55

Q: What about the “logP[b]” value of the same compound?
A: 3.51

Q: What does the source list for `Cc1cc(C)c(SCC(F)(F)F)cc1Br` [VIIa-11, 1-Bromo-2,4-dimethyl-5-[(2,2,2-trifluoroethyl)sulphanyl]benzene]?
A: chromatographic logP [1]: 4.81; chromatographic logP [2]: 4.77

Q: For `Cc1cc(C)c([S+]([O-])CC(F)(F)F)cc1-n1cnc2ncsc2c1=O` (stereo not drawn) [Compound 81], which “logP[a]” value is on record?
A: 1.65

Q: What about the “logP[b]” value of the same compound?
A: 1.62

Q: With `Cn1ncc2c(=O)n(-c3ccc(C(F)(F)F)c([S+]([O-])CC(F)(F)F)c3)cnc21` (racemic) [Compound 29] as the compound, how does the “logP[a]” value read?
A: 2.16

Q: And the “logP[b]” value?
A: 2.11

Q: With `COc1ccc(-n2cnc3sccc3c2=O)cc1SCC(F)(F)F` [Compound 84] as the compound, how does the “logP[a]” value read?
A: 2.75

Q: And the “logP[b]” value?
A: 2.71

Q: With `Nc1cc(SCC(F)(F)F)ccc1F` [IVa-5, 2-Fluoro-5-[(2,2,2-trifluoroethyl)sulphanyl]aniline] as the compound, how does the chromatographic logP [1] read?
A: 2.57

Q: And the chromatographic logP [2]?
A: 2.53

Q: Which chromatographic logP [1] does the source give for `Cc1cc(F)c(N)cc1[S+]([O-])CC(F)(F)F` (stereo not drawn) [IVb-1, 2-Fluoro-4-methyl-5-[(2,2,2-trifluoroethyl)sulphinyl]aniline] here?
A: 1.77

Q: What about the chromatographic logP [2] of the same compound?
A: 1.72

Q: With `Cc1ccc(NC(=O)C(F)(F)F)c(F)c1` [XIII-1, 2,2,2-Trifluoro-N-(2-fluoro-4-methylphenyl)acetamide] as the compound, how does the chromatographic logP [1] read?
A: 2.4

Q: For `Cc1cc(F)c(NC(=O)C(F)(F)F)cc1SSc1cc(NC(=O)C(F)(F)F)c(F)cc1C` [XI-1, N,N′-[Disulphanediylbis(6-fluoro-4-methylbenzene-3,1-diyl)]bis(2,2,2-trifluoroacetamide)], which chromatographic logP [1] is on record?
A: 4.41

Q: For `Cc1cc(F)c(NC(=O)C(F)(F)F)cc1SCC(F)(F)F` [Compound X-1, 2,2,2-Trifluoro-N-{2-fluoro-4-methyl-5-[(2,2,2-trifluoroethyl)sulphanyl]phenyl}acetamide], which chromatographic logP [1] is on record?
A: 3.31

Q: What does the source list for `Cc1ccc(B(O)O)cc1SCC(F)(F)F` [VIIIa-7, {4-Methyl-3-[(2,2,2-trifluoroethyl)sulphanyl]phenyl}boronic acid]?
A: chromatographic logP [1]: 2.3; chromatographic logP [2]: 2.24

Q: For `Cc1cc(F)c(-n2c(C(F)(F)F)nc3c(cnn3C)c2=O)cc1[S+]([O-])CC(F)(F)F` (stereo not drawn) [Compound 16, 5-{2-Fluoro-4-methyl-5-[(2,2,2-trifluoroethyl)sulphinyl]phenyl}-1-methyl-6-(trifluoromethyl)-1,5-dihydro-4H-pyrazolo[3,4-d]pyrimidin-4-one], which “log P[a]” value (acidic range, pH 2.7, 0.1% aqueous formic acid / acetonitrile) is on record?
A: 2.74

Q: And the “log P[b]” value (neutral range, pH 7.8, 0.001 molar aqueous ammonium bicarbonate / acetonitrile)?
A: 2.70

Q: And the chromatographic logP [1]?
A: 2.67

Q: And the chromatographic logP (reversed-phase C18 HPLC column, pH 2.7, method [a], read-out: logP[a])?
A: 2.67

Q: And the chromatographic logP (reversed-phase C18 HPLC column, pH 7.8, method [b], read-out: logP[b])?
A: 2.63

Q: What about the chromatographic logP [2] of the same compound?
A: 2.63

Q: Which chromatographic logP [3] does the source give for `O=[N+]([O-])c1ccc(Cl)c(SSc2cc([N+](=O)[O-])ccc2Cl)c1` [XIX-3, 1,1′-Disulphanediylbis(2-chloro-5-nitrobenzene)] here?
A: 5.03

Q: And the chromatographic logP [4]?
A: 5.01

Q: What does the source list for `Cc1cc(F)c(B(O)O)cc1SCC(F)(F)F` [VIIIa-1, {2-Fluoro-4-methyl-5-[(2,2,2-trifluoroethyl)sulphanyl]phenyl}boronic acid]?
A: chromatographic logP [1]: 2.34; chromatographic logP [2]: 2.41

Q: Which “logP[a]” value does the source give for `O=c1c2ccsc2ncn1-c1ccc(C(F)(F)F)c([S+]([O-])CC(F)(F)F)c1` (stereo not drawn) [Compound 99] here?
A: 2.54

Q: And the “logP[b]” value?
A: 2.51

Q: With `O=c1c2ccsc2ncn1-c1ccc(Cl)c(SCC(F)(F)F)c1` [Compound 85] as the compound, how does the “logP[a]” value read?
A: 3.09

Q: And the “logP[b]” value?
A: 3.03

Q: With `O=C(Nc1cc(SCC(F)(F)F)c(Cl)cc1F)C(F)(F)F` [Compound X-2, N-{4-Chloro-2-fluoro-5-[(2,2,2-trifluoroethyl)sulphanyl]phenyl}-2,2,2-trifluoroacetamide] as the compound, how does the chromatographic logP [1] read?
A: 3.34

Q: And the chromatographic logP [2]?
A: 3.14

Q: Which chromatographic logP [1] does the source give for `Cc1ccc(Br)cc1SSc1cc(Br)ccc1C` here?
A: > 7.36

Q: What about the chromatographic logP [2] of the same compound?
A: > 7.36

Q: With `O=C(Nc1ccc(Cl)cc1F)C(F)(F)F` [XIII-2, N-(4-Chloro-2-fluorophenyl)-2,2,2-trifluoroacetamide] as the compound, how does the chromatographic logP [3] read?
A: 2.53

Q: What about the chromatographic logP [4] of the same compound?
A: 2.4
